From ChEMBL document CHEMBL1152996, “Tetracycline resistance gene tet(W) in the pathogenic bacterium Clostridium difficile” (2008)
≈ marks a conversion by molar mass, not a printed value.

Key:
Format in all cases: functional
Clostridioides difficile [1] = experiment: Antibacterial activity against Clostridium difficile CD37 harboring tet(M) gene from Clostridium difficile CD5
Clostridioides difficile [2] = experiment: Antibacterial activity against Clostridium difficile clinical isolate expressing tet(M) gene by Etest
Clostridioides difficile [3] = experiment: Antibacterial activity against Clostridium difficile CD5 expressing tet(W) gene

Structure (SMILES): CN(C)[C@@H]1C(O)=C(C(N)=O)C(=O)[C@@]2(O)C(O)=C3C(=O)c4c(O)cccc4[C@@](C)(O)[C@H]3C[C@@H]12 [TETRACYCLINE]
- MIC (Clostridioides difficile [1]): 8 µg/mL (≈ 18 µM)
- MIC (Clostridioides difficile [2]): ≥ 8 µg/mL
- MIC (Clostridioides difficile [3]): 8 µg/mL (≈ 18 µM)
